Each structure is given as a SMILES string. A value given as a limit tells only on which side of the number the result lay.

The assay has as its system TFEB. The experiment in a line: TFEB nuclear translocation assay, HeLa wt cells. The following applies: Homo sapiens, HeLa, 2 h, 2 hrs compound treatment, Table 1 does not say HeLa wt or TRPML1 KO. It counts as cell-based. Summed up: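 Using 20× epifluorescence of fixed, anti-TFEB-stained HeLa wt cells treated 2 hrs with compound, nuclear versus perinuclear ring intensity was quantified over four fields per well, yielding AC50 values.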
For the compound `CN(C)S(=O)(=O)c1ccc(S(=O)(=O)Nc2ccccc2N2CCC(C(=O)NC(C)(C)C)CC2)cc1` [Compound A-323, N-tert-butyl-1-{2-[4-(dimethylsulfamoyl)benzenesulfonamido]phenyl}piperidine-4-carboxamide], the AC50 lay within 2.01 to 8 µM.

The compound `CC(C)(C)C(=O)N1CCN(c2ccccc2NS(=O)(=O)c2ccc(S(C)(=O)=O)cc2)CC1` [Compound A-324, N-{2-[4-(2,2-dimethylpropanoyl)piperazin-1-yl]phenyl}-4-methanesulfonylbenzene-1-sulfonamide] had an AC50 not below 10 µM.

For the compound `CN(C)C(=O)N1CCN(c2ccccc2NS(=O)(=O)c2ccc(S(=O)(=O)N(C)C)cc2)CC1` [Compound A-325, 4-{2-[4-(dimethylsulfamoyl)benzenesulfonamido]phenyl}-N,N-dimethylpiperazine-1-carboxamide], the AC50 is not below 10 µM.

In turn, `O=C1COCCN1c1ccc(Cl)cc1NS(=O)(=O)c1ccc2c(c1)CCC2` [Compound A-326, N-[5-chloro-2-(3-oxomorpholin-4-yl)phenyl]-2,3-dihydro-1H-indene-5-sulfonamide] came in with an AC50 not below 10 µM.

As for `CN(C)S(=O)(=O)c1ccc(S(=O)(=O)Cc2cccc(Cl)c2N2CCOCC2)cc1` [Compound A-327, 4-{[3-chloro-2-(morpholin-4-yl)phenyl]methanesulfonyl}-N,N-dimethylbenzene-1-sulfonamide], the AC50 was not below 10 µM.

For the compound `O=S(=O)(Nc1cc(Cl)ccc1N1CCC2(CCCO2)CC1)c1ccc2c(c1)CCC2` [Compound A-328, N-(5-chloro-2-{1-oxa-8-azaspiro[4.5]decan-8-yl}phenyl)-2,3-dihydro-1H-indene-5-sulfonamide], the AC50 was not below 10 µM.

`Cn1nccc1S(=O)(=O)Nc1cccc(Cl)c1N1CCOCC1` [Compound A-329, N-[3-chloro-2-(morpholin-4-yl)phenyl]-1-methyl-1H-pyrazole-5-sulfonamide] had a half-maximal activity concentration (AC50) not below 10 µM.

Turning to `CN(C)S(=O)(=O)c1ccc(S(=O)(=O)Nc2cc(Cl)ccc2N2CCOCC2)nc1` [Compound A-330, N2-[5-chloro-2-(morpholin-4-yl)phenyl]-N5,N5-dimethylpyridine-2,5-disulfonamide], the AC50 was not below 10 µM.

In turn, `CN1CC2(CCN(c3ccccc3NS(=O)(=O)c3ccc(S(=O)(=O)N(C)C)cc3)CC2)c2cccnc21` [Compound A-331, N1,N1-dimethyl-N4-(2-{1′-methyl-1′,2′-dihydrospiro[piperidine-4,3′-pyrrolo[2,3-b]pyridin]-1-yl}phenyl)benzene-1,4-disulfonamide] came in with an AC50 not above 2 µM.

On to `CS(=O)(=O)c1ccc(S(=O)(=O)Nc2ccccc2N2CCC3(CC2)OCc2cc(F)ccc23)cc1` [Compound A-332, N-(2-{5-fluoro-3H-spiro[2-benzofuran-1,4′-piperidin]-1′-yl}phenyl)-4-methanesulfonylbenzene-1-sulfonamide], for which the AC50 was in the range of 2.01 to 8 µM.

In the case of `CS(=O)(=O)c1ccc(S(=O)(=O)Nc2ccccc2N2CCC3(CCO3)CC2)cc1` [Compound A-333, 4-methanesulfonyl-N-(2-{1-oxa-7-azaspiro[3.5]nonan-7-yl}phenyl)benzene-1-sulfonamide], the AC50 was not below 10 µM.

`Cc1ccc(S(=O)(=O)Nc2ccccc2N2CCN(C(=O)C(C)c3ccccc3)CC2)cc1` (stereo not shown) [Compound A-334, 4-methyl-N-{2-[4-(2-phenylpropanoyl)piperazin-1-yl]phenyl}benzene-1-sulfonamide] displayed an AC50 of 2.01 to 8 µM.

The compound `CN(C)S(=O)(=O)c1ccc(S(=O)(=O)Nc2ccccc2N2CCN(C(=O)C(O)c3ccccc3)CC2)cc1` (stereo not shown) [Compound A-335, N4-{2-[4-(2-hydroxy-2-phenylacetyl)piperazin-1-yl]phenyl}-N1,N1-dimethylbenzene-1,4-disulfonamide] had an AC50 not below 10 µM.

`CC(C)OC(=O)N1CCN(c2ccccc2NS(=O)(=O)c2ccc(S(=O)(=O)N(C)C)cc2)CC1` [Compound A-336, propan-2-yl 4-{2-[4-(dimethylsulfamoyl)benzenesulfonamido]phenyl}piperazine-1-carboxylate]: the AC50 was not above 2 µM.

Take `CN(C)S(=O)(=O)c1ccc(S(=O)(=O)Nc2ccccc2N2CCN(C(C)(C)C)CC2)cc1` [Compound A-337, N4-[2-(4-tert-butylpiperazin-1-yl)phenyl]-N1,N1-dimethylbenzene-1,4-disulfonamide]: the half-maximal activity concentration (AC50) was 8.01 to 9.99 µM.

The compound `CN(C)S(=O)(=O)c1ccc(S(=O)(=O)Nc2ccccc2N2CCC(C(=O)Nc3ccccc3)CC2)cc1` [Compound A-338, 1-{2-[4-(dimethylsulfamoyl)benzenesulfonamido]phenyl}-N-phenylpiperidine-4-carboxamide] returned a half-maximal activity concentration (AC50) of 2.01 to 8 µM.

For the compound `CN(C(=O)C1CCN(c2ccccc2NS(=O)(=O)c2ccc(S(=O)(=O)N(C)C)cc2)CC1)c1ccccc1` [Compound A-339, 1-{2-[4-(dimethylsulfamoyl)benzenesulfonamido]phenyl}-N-methyl-N-phenylpiperidine-4-carboxamide], the AC50 lay in the range of 2.01 to 8 µM.

`CN(C)S(=O)(=O)c1ccc(S(=O)(=O)Nc2cccc(Cl)c2N2CCOCC2)nc1` [Compound A-340, N2-[3-chloro-2-(morpholin-4-yl)phenyl]-N5,N5-dimethylpyridine-2,5-disulfonamide] had an AC50 not below 10 µM.

Regarding `O=S(=O)(Nc1cccc(Cl)c1N1CCC(c2ccc(Cl)cc2F)CC1)c1ccc2c(c1)CCC2` [Compound A-341, N-{3-chloro-2-[4-(4-chloro-2-fluorophenyl)piperidin-1-yl]phenyl}-2,3-dihydro-1H-indene-5-sulfonamide], the AC50 is not above 2 µM.

With `CN(C)S(=O)(=O)c1ccc(C(Nc2cccc(Cl)c2N2CCOCC2)C(F)(F)F)cc1` (stereo not shown) [Compound A-342, 4-(1-{[3-chloro-2-(morpholin-4-yl)phenyl]amino}-2,2,2-trifluoroethyl)-N,N-dimethylbenzene-1-sulfonamide], the half-maximal activity concentration (AC50) was in the range of 8.01 to 9.99 µM.

Take `O=S(=O)(Nc1cc(Cl)ccc1N1CCOC2(CCOCC2)C1)c1ccc2c(c1)CCC2` [Compound A-343, N-(5-chloro-2-{1,9-dioxa-4-azaspiro[5.5]undecan-4-yl}phenyl)-2,3-dihydro-1H-indene-5-sulfonamide]: the AC50 was 2.01 to 8 µM.

As for `O=S(=O)(Nc1cc(Cl)ccc1N1CC23CCC2(COC3)C1)c1ccc2c(c1)CCC2` (stereo not shown) [Compound A-344, N-(5-chloro-2-{3-oxa-7-azatricyclo[3.3.2.0^1,^5]decan-7-yl}phenyl)-2,3-dihydro-1H-indene-5-sulfonamide], the AC50 fell in the range of 2.01 to 8 µM.

`O=S(=O)(Nc1cc(Cl)ccc1N1CCCC2(COC2)C1)c1ccc2c(c1)CCC2` [Compound A-345, N-(5-chloro-2-{2-oxa-6-azaspiro[3.5]nonan-6-yl}phenyl)-2,3-dihydro-1H-indene-5-sulfonamide] showed an AC50 of 2.01 to 8 µM.

`O=S(=O)(Nc1cc(Cl)ccc1N1CCCC12CCOC2)c1ccc2c(c1)CCC2` (stereo not shown) [Compound A-346, N-(5-chloro-2-{7-oxa-1-azaspiro[4.4]nonan-1-yl}phenyl)-2,3-dihydro-1H-indene-5-sulfonamide] had an AC50 not above 2 µM.

In turn, `O=S(=O)(Nc1cc(Cl)ccc1N1CCCC2(CCCOC2)C1)c1ccc2c(c1)CCC2` (stereo not shown) [Compound A-347, N-(5-chloro-2-{2-oxa-8-azaspiro[5.5]undecan-8-yl}phenyl)-2,3-dihydro-1H-indene-5-sulfonamide] showed a concentration at half-maximal activity (AC50) not above 2 µM.

For the compound `CN1CC2(CCN(c3ccccc3NS(=O)(=O)c3ccc(S(C)(=O)=O)cc3)CC2)c2cccnc21` [Compound A-348, 4-methanesulfonyl-N-(2-{1′-methyl-1′,2′-dihydrospiro[piperidine-4,3′-pyrrolo[2,3-b]pyridin]-1-yl}phenyl)benzene-1-sulfonamide], the AC50 was 8.01 to 9.99 µM.

Compound `Cc1ccc(S(=O)(=O)Nc2ccccc2N2CCN(C(=O)C(O)c3ccccc3)CC2)cc1` (stereo not shown) [Compound A-349, N-{2-[4-(2-hydroxy-2-phenylacetyl)piperazin-1-yl]phenyl}-4-methylbenzene-1-sulfonamide] displayed an AC50 not below 10 µM.

Regarding `Cc1ccc(S(=O)(=O)Nc2ccccc2N2CCN(C(=O)C(=O)c3ccccc3)CC2)cc1` [Compound A-350, 4-methyl-N-{2-[4-(2-oxo-2-phenylacetyl)piperazin-1-yl]phenyl}benzene-1-sulfonamide], the concentration at half-maximal activity (AC50) lay in the range of 2.01 to 8 µM.

In turn, `CCS(=O)(=O)c1ccc(S(=O)(=O)Nc2ccccc2N2CCN(C(=O)C(C)(C)C)CC2)cc1` [Compound A-351, N-{2-[4-(2,2-dimethylpropanoyl)piperazin-1-yl]phenyl}-4-(ethanesulfonyl)benzene-1-sulfonamide] showed an AC50 not below 10 µM.

The compound `CN(C)S(=O)(=O)c1ccc(S(=O)(=O)Nc2cccc(Cl)c2N2CCN(C(=O)C(C)(C)C)CC2)cc1` [Compound A-352, N4-{3-chloro-2-[4-(2,2-dimethylpropanoyl)piperazin-1-yl]phenyl}-N1,N1-dimethylbenzene-1,4-disulfonamide] registered an AC50 of 2.01 to 8 µM.

Compound `CN(C)S(=O)(=O)c1ccc(S(=O)(=O)Nc2ccccc2N2CCC(C(C)(C)C)CC2)cc1` [Compound A-353, N4-[2-(4-tert-butylpiperidin-1-yl)phenyl]-N1,N1-dimethylbenzene-1,4-disulfonamide] registered an AC50 not above 2 µM.

Compound `CN(C)S(=O)(=O)c1ccc(S(=O)(=O)Nc2ccccc2N2C3CCC2CN(C(=O)C(C)(C)C)C3)cc1` [Compound A-354, N4-{2-[3-(2,2-dimethylpropanoyl)-3,8-diazabicyclo[3.2.1]octan-8-yl]phenyl}-N1,N1-dimethylbenzene-1,4-disulfonamide] gave an AC50 not below 10 µM.

Regarding `CN(C)S(=O)(=O)c1ccc(S(=O)(=O)Nc2ccccc2N2CCC(O)(c3ncccc3F)CC2)cc1` [Compound A-355, N4-{2-[4-(3-fluoropyridin-2-yl)-4-hydroxypiperidin-1-yl]phenyl}-N1,N1-dimethylbenzene-1,4-disulfonamide], the AC50 is 2.01 to 8 µM.

Consider `CN(C)S(=O)(=O)c1ccc(C(Nc2cc(Cl)ccc2N2CCOCC2)C(F)(F)F)cc1` (stereo not shown) [Compound A-356, 4-(1-{[5-chloro-2-(morpholin-4-yl)phenyl]amino}-2,2,2-trifluoroethyl)-N,N-dimethylbenzene-1-sulfonamide], for which the AC50 was 2.01 to 8 µM.

Broadly, the AC50 is the midpoint of the concentration-response curve, whichever way the signal moves.

These data come from patent US20230104936A1, “TRPML MODULATORS” (Casma Therapeutics, Inc., priority 2019, published 2023).
